US7417045B2, “Heterocyclic substituted pyridine or phenyl compounds with CXCR3 antagonist activity” (Schering Corporation, priority 2005, dated 2008)

What follows are molecules tested against T1, human CXCR3 (N-delta 4) (Homo sapiens, UniProt P49682) (assay: Human CXCR3 (N-delta 4) Scintillation Proximity Assay (SPA), [125I] IP-10 binding). Details: IC50 rating; [125I] IP-10 displacement, Ba/F3-hCXCR3 (N-delta 4) membranes.
T1 construct: CD8 leader (N); Flag tag; expressed in transfected cells; membranes
T1 sequence (P49682 5-368 limits assumed): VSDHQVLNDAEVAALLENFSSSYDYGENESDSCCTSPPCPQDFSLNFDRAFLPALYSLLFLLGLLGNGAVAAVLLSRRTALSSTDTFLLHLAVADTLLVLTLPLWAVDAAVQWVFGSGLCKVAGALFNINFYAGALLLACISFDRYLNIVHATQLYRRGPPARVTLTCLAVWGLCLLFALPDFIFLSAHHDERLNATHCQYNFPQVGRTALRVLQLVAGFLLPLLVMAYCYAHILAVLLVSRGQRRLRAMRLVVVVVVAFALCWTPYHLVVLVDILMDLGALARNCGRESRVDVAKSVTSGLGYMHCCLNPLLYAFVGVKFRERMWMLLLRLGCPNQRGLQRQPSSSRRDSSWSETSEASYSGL
Description: The inventive compounds can readily be evaluated to determine activity at The CXCR3 receptors by known methods, such as, for example, Development of Human CXCR3 (N-delta 4) Binding Assay.
Cloning and Expression of Human CXCR3 (N-Delta 4):
The DNA encoding human CXCR3 was cloned by PCR using human genomic DNA (Promega, Madison, Wis.) as a template. The PCR primers were designed based on the published sequence of human orphan receptor GPR9 (1) with incorporated restriction sites, a Kozak consensus sequence, CD8 leader and Flag tag. The PCR product was subcloned into the mammalian expression vector pME18Sneo, a derivative of the SR-alpha expression vector (designated as pME18Sneo-hCXCR3 (N-delta 4).
IL-3-dependent mouse pro-B cells Ba/F3 were transfected by electroporation in 0.4 ml Dulbecco's PBS containing 4×10^6 cells with 20 μg of pME18Sneo-hCXCR3 (N-delta 4) plasmid DNA. Cells were pulsed at 400 Volts, 100 OHMs, 960 μFd. The transfected cells were under selection with 1 mg/ml G418 (Life Technologies, Gaithersburg, Md.). G418-resistant Ba/F3 clones were screened for CXCR3 expression by specific binding of [^125I] IP-10 (NEN Life Science Products, Boston, Mass.).
Preparation of Ba/F3-hCXCR3 (N-Delta 4) Membranes
Ba/F3 cells expressing human CXCR3 (N-delta 4) were pelleted and resuspended in the lysis buffer containing 10 mM HEPES, pH 7.5 and Complete® protease inhibitors (1 tablet per 100 ml) (Boehringer Mannheim, Indianapolis, Ind.) at a cell density of 20×10^6 cells per ml. After 5 minutes incubation on ice, cells were transferred to 4639 cell disruption bomb (Parr Instrument, Moline, Ill.) and applied with 1,500 psi of nitrogen for 30 minutes on ice. Large cellular debris was removed by centrifugation at 1,000× g. Cell membrane in the supernatant was sedimented at 100,000× g. The membrane was resuspended in the lysis buffer supplemented with 10% sucrose and stored at −80° C. Total protein concentration of the membrane was determined by BCA method from Pierce (Rockford, Ill.).
Human CXCR3 (N-Delta 4) Scintillation Proximity Assay (SPA)
For each assay point, 2 μg of membrane was preincubated for 1 hr with 300 μg wheat germ agglutinin (WGA) coated SPA beads (Amersham, Arlington Heights, Ill.) in the binding buffer (50 mM HEPES, 1 mM CaCl2, 5 mM MgCl2, 125 mM NaCl, 0.002% NaN3, 1.0% BSA) at room temperature. The beads were spun down, washed once, resuspended in the binding buffer and transferred to a 96-well Isoplate (Wallac, Gaithersburg, Md.). 25 pM of [^125I] IP-10 with tested compounds in a series of titration were added to start the reaction. After 3 hr reaction at room temperature, the amount of [^125I] IP-10 bound to the SPA beads was determined with a Wallac 1450 Microbeta counter.
Work on CCOC1(C)NN=C(c2cnc(N3CCN(C4CCN(C(=O)c5ccc(Br)cc5)CC4)[C@@H](CC)C3)c(Cl)c2)O1 (some centres unmarked) [Compound 158] yielded an IC50 of over 100 nM.
Work on CC[C@H]1CN(c2ncc(-c3ncc[nH]3)cc2Cl)CCN1C1CCN(Cc2ccc(C#CC(C)(C)NC(=O)OC(C)(C)C)cc2)CC1 [Compound 101] yielded an IC50 of under 25 nM.
CC[C@H]1CN(c2ncc(-c3ncc[nH]3)cc2Cl)CCN1C1CCN(C(=O)c2ccc(Cl)nc2N)CC1 [Compound 46] was tested, and the IC50 was under 25 nM.
Molecule CC[C@H]1CN(c2ncc(-c3ncc[nH]3)cc2Cl)CCN1C1(C)CCN(Cc2ccc(Cl)cc2C(=O)OC)CC1 [Compound 151] has an IC50 of over 100 nM.
CC[C@H]1CN(c2ncc(-c3ncc[nH]3)cc2Cl)CCN1C1CCN(C(=O)c2ccc(C#CC(C)(C)O)cc2)CC1 [Compound 113] gave an IC50 of 25 to 100 nM.
CC[C@H]1CN(c2ncc(C3=NCCN3)cc2Cl)CCN1C1CCN(Cc2ccc(OC(F)(F)F)cc2)CC1 [Compound 12] gave an IC50 of under 25 nM.
Work on CC[C@H]1CN(c2ccc(-c3ncc[nH]3)cc2Br)CCN1C1CCN(Cc2ccc(Cl)cc2F)CC1 [Compound 20] yielded an IC50 of under 25 nM.
With CC[C@H]1CN(c2ncc(-c3ncc[nH]3)cc2Cl)CCN1C1CCN(C(=O)c2ccc(OC(F)(F)F)cc2)CC1 [Compound 126] the IC50 was 25 to 100 nM.
With CC[C@H]1CN(c2ncc(-c3ncc[nH]3)cc2Cl)CCN1C1CCN(C(=O)c2ccc(-n3ccc(C(F)(F)F)n3)cc2)CC1 [Compound 157] the IC50 was over 100 nM.
CC[C@H]1CN(c2ncc(-c3ncc[nH]3)cc2Cl)CCN1C1CCN(Cc2ccc(Cl)cc2/C(N)=N/O)CC1 [Compound 6] gave an IC50 of under 25 nM.
CC[C@H]1CN(c2ncc(-c3ncc[nH]3)cc2Cl)CCN1C1CCN(C(C)c2ccc(N3CCOCC3)cc2)CC1 (some centres unmarked) [Compound 139] was tested, and the IC50 was over 100 nM.
Molecule CC[C@H]1CN(c2ncc(-c3ncc[nH]3)cc2Cl)CCN1C1CCN([C@@H](CO)c2ccc(Cl)cc2)CC1 [Compound 10] has an IC50 of under 25 nM.
CC[C@H]1CN(c2ncc(-c3ncc[nH]3)cc2Cl)CCN1C1CCN(C(=O)c2ccc(C#CC(C)(C)NC(=O)OC(C)(C)C)cc2)CC1 [Compound 142] was tested, and the IC50 was over 100 nM.
Molecule CC[C@H]1CN(c2ncc(C3=NCCN3)cc2Cl)CCN1C1CCN(Cc2ccc(Cl)cc2C(=O)NCCO)CC1 [Compound 94] has an IC50 of under 25 nM.
CC[C@H]1CN(c2ncc(C3=NCCN3)cc2Cl)CCN1C1CCN(Cc2ccc(C#CCOC)cc2)CC1 [Compound 34] showed an IC50 of under 25 nM.
With CC[C@H]1CN(c2ncc(-c3nnc[nH]3)cc2Cl)CCN1C1CCN(Cc2ccc(Cl)cc2F)CC1 [Compound 69] the IC50 was under 25 nM.
Molecule CC[C@H]1CN(c2ncc(-c3ncc[nH]3)cc2Cl)CCN1C1CCN(Cc2ccc(-n3cccn3)cc2)CC1 [Compound 19] has an IC50 of under 25 nM.
With CC[C@H]1CN(c2ncc(-c3ncc[nH]3)cc2Cl)CCN1C1CCN(Cc2ccc(I)cc2)CC1 [Compound 3] the IC50 was under 25 nM.
CC[C@H]1CN(c2ncc(-c3ncc[nH]3)cc2Cl)CCN1C1CCN([C@H](C(=O)NCC2CC2)c2ccc(Cl)cc2)CC1 [Compound 159] showed an IC50 of over 100 nM.
Molecule CC[C@H]1CN(c2ncc(-c3ncc[nH]3)cc2Cl)CCN1C1CCN([C@@H](C(N)=O)c2ccc(Cl)cc2)CC1 [Compound 91] has an IC50 of under 25 nM.
Work on CC[C@H]1CN(c2ncc(-c3nnc(C(C)(C)O)o3)cc2Cl)CCN1C1CCN(Cc2ccc(Cl)cc2F)CC1 [Compound 98] yielded an IC50 of under 25 nM.
For CC[C@H]1CN(c2ncc(-c3ncc[nH]3)cc2Cl)CCN1C1CCN(Cc2ccc(Cl)cc2)CC1 [Compound 1], the IC50 was under 25 nM.
CCOC(CNC(=N)c1cc(Cl)ccc1CN1CCC(N2CCN(c3ncc(-c4ncc[nH]4)cc3Cl)C[C@@H]2CC)CC1)OCC [Compound 21] was tested, and the IC50 was under 25 nM.
In the case of CC[C@H]1CN(c2ncc(-c3ncc[nH]3)cc2Cl)CCN1C1CCN(CCC(=O)c2ccc(Cl)cc2)CC1 [Compound 95], the IC50 is reported as under 25 nM.
For CC[C@H]1CN(c2ncc(C3=NCCN3)cc2Cl)CCN1C1CCN(Cc2ccc(Cl)cc2C#N)CC1 [Compound 51], the IC50 was under 25 nM.
CC[C@H]1CN(c2ncc(-c3nccn3CCC(=O)c3ccc(Cl)cc3)cc2Cl)CCN1C1CCN(CCC(=O)c2ccc(Cl)cc2)CC1 [Compound 165] gave an IC50 of over 100 nM.
CC[C@H]1CN(c2ncc(-c3nc(C(O)C(F)(F)F)c[nH]3)cc2Cl)CCN1C1CCN(C(=O)c2ccc(Cl)cc2)CC1 (some centres unmarked) [Compound 125] was tested, and the IC50 was 25 to 100 nM.
In the case of CC[C@H]1CN(c2ncc(-c3nccn3S(C)(=O)=O)cc2Cl)CCN1C1CCN(Cc2ccc(Cl)cc2F)CC1 [Compound 121], the IC50 is reported as 25 to 100 nM.
CC[C@H]1CN(c2ncc(-c3ncc[nH]3)cc2Cl)CCN1C1CCN(C(=O)c2ccc(Cl)cc2O)CC1 [Compound 78] showed an IC50 of under 25 nM.
With CC[C@H]1CN(c2ncc(-c3ncc[nH]3)cc2Cl)CCN1C1CCN(Cc2ccc(Cl)cc2C#N)CC1 [Compound 33] the IC50 was under 25 nM.
In the case of CC[C@H]1CN(c2ncc(-c3ncc[nH]3)cc2Cl)CCN1C1CCN(Cc2ccc(Cl)cc2C(=O)OC)CC1 [Compound 50], the IC50 is reported as under 25 nM.
CC[C@H]1CN(c2ncc(C3=NCCN3)cc2Cl)CCN1C1CCN(Cc2ccc(C#CC(C)(C)NS(N)(=O)=O)cc2)CC1 [Compound 131] showed an IC50 of 25 to 100 nM.
For CC[C@H]1CN(c2ncc(-c3ncon3)cc2Cl)CCN1C1CCN(Cc2ccc(Cl)cc2F)CC1 [Compound 144], the IC50 was over 100 nM.
CC[C@H]1CN(c2ncc(C3=NCCN3)cc2Cl)CCN1C1CCN(Cc2ccc(C3CC3C(C)(C)O)cc2)CC1 (some centres unmarked) [Compound 152] was tested, and the IC50 was over 100 nM.
With CC[C@H]1CN(c2ncc(-c3ncc[nH]3)cc2Cl)CCN1C1CCN(Cc2ccc(-n3cncn3)cc2)CC1 [Compound 76] the IC50 was under 25 nM.
CC[C@H]1CN(c2ncc(-c3ncc[nH]3)cc2Cl)CCN1C1CCN([C@H](C(=O)NC)c2ccc(Cl)cc2)CC1 [Compound 166] showed an IC50 of over 100 nM.
With CC[C@H]1CN(c2ncc(-c3ncc[nH]3)cc2Cl)CCN1C1(C)CCN(Cc2ccc(Cl)cc2C(=O)NC)CC1 [Compound 130] the IC50 was 25 to 100 nM.
CC[C@H]1CN(c2ncc(C3=NCCN3)cc2Cl)CCN1C1CCN(C(=O)c2ccc(C#N)cc2)CC1 [Compound 87] gave an IC50 of under 25 nM.
CC[C@H]1CN(c2ncc(C3=NCCN3)cc2Cl)CCN1C1CCN(C(=O)c2ccc(C#CC(C)(C)NC(=O)OC(C)(C)C)cc2)CC1 [Compound 123] showed an IC50 of 25 to 100 nM.
In the case of CC[C@H]1CN(c2ncc(-c3ncc[nH]3)cc2Cl)CCN1C1CCN(Cc2ccc(C#CC(C)(C)O)cc2)CC1 [Compound 23], the IC50 is reported as under 25 nM.
CC[C@H]1CN(c2ncc(-c3ncc[nH]3)cc2Cl)CCN1C1CCN(C(C(=O)Nc2ccccn2)c2ccc(Cl)cc2)CC1 (some centres unmarked) [Compound 116] was tested, and the IC50 was 25 to 100 nM.
With CC[C@H]1CN(c2ncc(-c3nnc(CO)o3)cc2Cl)CCN1C1CCN(C(C(=O)OC)c2ccc(Cl)cc2)CC1 (some centres unmarked) [Compound 124] the IC50 was 25 to 100 nM.
CC[C@H]1CN(c2ncc(-c3ncc[nH]3)cc2Cl)CCN1C1CCN(Cc2ccc(C#CC(C)(C)NS(C)(=O)=O)cc2)CC1 [Compound 137] gave an IC50 of over 100 nM.
CC[C@H]1CN(c2ncc(-c3ncc[nH]3)cc2Cl)CCN1C1CCN(Cc2ccc(C(N)=O)cc2)CC1 [Compound 148] gave an IC50 of over 100 nM.
CC[C@H]1CN(c2ncc(-c3nnco3)cc2Cl)CCN1C1CCN(Cc2ccc(Cl)cc2F)CC1 [Compound 27] was tested, and the IC50 was under 25 nM.
For CC[C@H]1CN(c2ncc(-c3ncc[nH]3)cc2Cl)CCN1C1CCN(Cc2ccc(Cl)cc2C(=O)O)CC1 [Compound 43], the IC50 was under 25 nM.
Molecule CC[C@H]1CN(c2ncc(C3=NCCN3)cc2Cl)CCN1C1CCN(Cc2ccc(C#N)cc2)CC1 [Compound 29] has an IC50 of under 25 nM.
For CC[C@H]1CN(c2ncc(-c3ncc[nH]3)cc2Cl)CCN1C1CCN([C@H](C(=O)OC)c2ccc(Cl)cc2)CC1 [Compound 133], the IC50 was over 100 nM.
With CC[C@H]1CN(c2ncc(C3=NCCN3)cc2Cl)CCN1C1CCN(Cc2ccc(C#CC(C)(C)NS(=O)(=O)NC(=O)OC(C)(C)C)cc2)CC1 [Compound 147] the IC50 was over 100 nM.

Same assay, conditions: [125I] IP-10 displacement, Ba/F3-hCXCR3 (N-delta 4) membranes
CC[C@H]1CN(c2ncc(-c3ncc[nH]3)cc2Cl)CCN1C1CCN(Cc2ccc(Cl)cc2)CC1 [Compound 1] showed an IC50 of 0.2 nM.
